Legend:
human PDAC explants = assay: Ex vivo human PDAC explants, IHC for pERK and CC3; format: cell-based
Protocol: Explant culture sponges and optimized culture media were prepared as previously described in Hasselluhn and Decker-Farrell et al.^54. Human tissue samples were obtained from de-identified patients undergoing resection surgeries, primarily pancreaticoduodenectomy (Whipple) or distal pancreatectomy, at New York-Presbyterian/Columbia University Irving Medical Center. Upon receipt of a resected human PDAC fragment (n=4), each tissue sample was cut into […] slices using a Compresstome. Any tumor tissue remaining after sectioning was fixed in 4% paraformaldehyde (Santa Cruz Biotechnology, sc-281692) for 2 hours, at 4° C. as the Day 0 control. […] Each well of a 24 well plate contained one explant slice placed between bottom sponge (1 cm^3) and a top sponge (2-3 mm thick). After 24 hours culture, explants were collected and fixed in 4% PFA for 2 hours. Fixed tissue was then transferred to 70% ethanol and paraffin embedded for long-term storage and further analysis. All tissues were fixed for up to 24 hours using 10% neutral buffered formalin and then moved to 70% ethanol for long term storage. All stainings were performed on 4-μm tissue sections. Sections were deparaffinized using a Leica XL ST5010 autostainer, after which slides were subjected to heat-activated epitope retrieval. […] Slides were further blocked in serum for 1 hour, and primary antibodies were added for overnight incubation at 4° C. […] Following incubation, ImmPACT DAB peroxidase (Vector Laboratories, SK-4100) was used to develop the stain and hematoxylin was used as nuclear counterstain. Stained slides were imaged at 40× magnification. Quantitative analyses of IHC images were performed using ImageJ.

pERK in KPF/FC tumors = assay: PK/PD in KPF/FC tumors (pERK IHC); format: in vivo; conditions: Mus musculus, read-out: EC50, pERK inhibition vs RMC-7977 concentration in tumors
Protocol: (§1) Tumor formation in KPF/FC (KrasLSL.G12D/+; p53flox/flox; Pdx1-Cre) mice was monitored by bi-weekly palpations until the detection of a mass, which was then confirmed by ultrasound. Tumor-bearing mice were randomized and assigned into groups (n=3/dose/timepoint). Single dose of RMC-7977 was administered orally at 10 mg/kg, 25 mg/kg and 50 mg/kg. The same vehicle formulation was used for the control group. Whole blood and tissue (tumors and colons) were harvested at indicated time points preserved as previously described (See Xenograft studies section).
(§2) Whole blood, tumor, colon and skin tissue concentrations of RMC-7977 were determined using liquid chromatography-tandem mass spectrometry (LC-MS/MS) methods. Tissue samples were homogenized with a 5× or 10× volume of homogenization buffer (methanol/15 mM PBS (1:2; v:v) or 15 mM PBS with 10% methanol). […] After thorough mixing and centrifugation, the supernatant was directly analyzed on a Sciex 6500+ triple quadrupole mass spectrometer equipped with an ACQUITY or Shimadzu UPLC system. […] RMC-7977 and IS (verapamil or terfenadine) were detected by positive electrospray ionization using multiple reaction monitoring (RMC-7977: m/z 865.4/706.4 or m/z 865.3/833.5; verapamil: m/z 455.2/164.9; terfenadine: m/z 472.3/436.4). The lower limit of quantification was 0.5 ng/mL or 2.0 ng/mL for blood, tumor, and other tissue. […]

[1] = Pharmacokinetics in KPF/FC mice (tumor and blood); format: in vivo, mouse
Protocol: as §1, §2

[2] = explants treated for 24 hours, 10-100 nM

CCn1c(-c2cc(N3CCN(C4CC4)CC3)cnc2[C@H](C)OC)c2c3cc(ccc31)-c1csc(n1)C[C@H](NC(=O)[C@H]1[C@@H]3COC[C@@H]31)C(=O)N1CCC[C@H](N1)C(=O)OCC(C)(C)C2 [RMC-7977]
apoptosis marker cleaved caspase 3 (CC3) (IHC) (human PDAC explants; [2]): increase
pERK expression (IHC) (human PDAC explants; [2]): concentration-dependent decrease
concentration of maximal changes in pERK and CC3 (human PDAC explants; highest concentration tested): 100 nM
response of the KRASWT explant model (human PDAC explants; one of the four explant models, KRASWT): sensitive
EC50 (pERK in KPF/FC tumors): 0.321 µM
exposure in blood and PDAC tumors compared with CDX tumor-bearing BALB/c mice ([1]; KPF/FC mice): lower
half-life (t1/2) in KPF/FC tumors compared to CDX tumors ([1]; KPF/FC tumors): shorter half-life
